Assay results taken from PubChem BioAssay AID248 (DTP/NCI, 2004).
Values joined by “and” are separate entries in the source; they are usually repeats but may differ in a detail not shown here. Equal values may be shown once. Inconclusive results and toxic doses are left out. Cut-off read from the data, not from the text of the source: active = T/C of 150% or more; inactive = T/C below 125%. Square brackets hold non-standard residues; d marks the D form. Peptide text beside a SMILES is read from it. * marks the point of attachment. ξ: configuration not given here. ξL = CC(C)CC(N)C(=O)O; ClAc = O=C(CCl)*

System: L1210 leukemia ip in BDF1 mice, survival T/C
Assay: NCI In Vivo Anticancer Drug Screen. Data for tumor model L1210 Leukemia (intraperitoneal) in B6D2F1 (BDF1) mice
Settings: endpoint: mean survival time, higher = longer survival
In short: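 Tumor cells were implanted, animals were treated, and survival was followed. The result divides the treated measurement by the vehicle-control measurement.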

[1] = dose: 100.0 mg/kg/injection, schedule: Q01DX001 (ip), vehicle: saline
[2] = dose: 200.0 mg/kg/injection, schedule: Q01DX001 (ip), vehicle: saline
[3] = dose: 400.0 mg/kg/injection, schedule: Q01DX001 (ip), vehicle: saline
[4] = dose: 100.0 mg/kg/injection, schedule: Q01DX009 (ip), vehicle: saline with Tween-80
[5] = dose: 100.0 mg/kg/injection, schedule: Q04DX003 (ip), vehicle: Klucel (hydroxypropylcellulose) (HPC)
[6] = dose: 200.0 mg/kg/injection, schedule: Q04DX003 (ip), vehicle: Klucel (hydroxypropylcellulose) (HPC)
[7] = dose: 100.0 mg/kg/injection, schedule: Q04DX002 (ip), vehicle: saline with Tween-80
[8] = dose: 100.0 mg/kg/injection, schedule: Q04DX003 (ip), vehicle: saline with Tween-80
[9] = dose: 200.0 mg/kg/injection, schedule: Q04DX002 (ip), vehicle: saline with Tween-80
[10] = dose: 200.0 mg/kg/injection, schedule: Q04DX003 (ip), vehicle: saline with Tween-80
[11] = dose: 400.0 mg/kg/injection, schedule: Q04DX003 (ip), vehicle: saline with Tween-80
[12] = dose: 400.0 mg/kg/injection, schedule: Q04DX002 (ip), vehicle: saline with Tween-80

Measured: T/C

O=[As]O
inactive: dose: 0.5 mg/kg/injection, schedule: Q01DX015 (ip), vehicle: carboxymethylcellulose (CMC) 97 % of control | dose: 1.0 mg/kg/injection, schedule: Q01DX015 (ip), vehicle: carboxymethylcellulose (CMC) 93 % of control | dose: 1.53 mg/kg/injection, schedule: Q01DX Z (ip), vehicle: carboxymethylcellulose (CMC) 110 % of control | dose: 2.0 mg/kg/injection, schedule: Q01DX015 (ip), vehicle: carboxymethylcellulose (CMC) 97 % of control | dose: 3.15 mg/kg/injection, schedule: Q01DX Z (ip), vehicle: carboxymethylcellulose (CMC) 98 % of control | dose: 4.0 mg/kg/injection, schedule: Q01DX015 (ip), vehicle: carboxymethylcellulose (CMC) 97 % of control | dose: 5.0 mg/kg/injection, schedule: Q01DX015 (ip), vehicle: carboxymethylcellulose (CMC) 88 % of control | dose: 6.3 mg/kg/injection, schedule: Q01DX Z (ip), vehicle: carboxymethylcellulose (CMC) 104 % of control | dose: 10.0 mg/kg/injection, schedule: Q01DX015 (ip), vehicle: carboxymethylcellulose (CMC) 87 % of control | dose: 12.6 mg/kg/injection, schedule: Q01DX Z (ip), vehicle: carboxymethylcellulose (CMC) 104 % of control

NCCCC(N)C(=O)O (stereo unspecified)
inactive: [1] 98 % of control | [2] 102 % of control | [3] 106 % of control

O=c1[nH]nc(Sc2ccccc2)c(=O)[nH]1
inactive: [1] 97 % of control | [2] 97 % of control | [3] 97 % of control

OC1C2COc3nc4ccccc4n3C(O2)C1O (stereo unspecified)
inactive: [1] 97 % of control | [2] 95 % of control

Cc1cc(C(C)(C)C)cc(O)c1O
inactive: dose: 100.0 mg/kg/injection, schedule: Q01DX001 (ip), vehicle: other 113 % of control | dose: 200.0 mg/kg/injection, schedule: Q01DX001 (ip), vehicle: other 93 % of control | dose: 400.0 mg/kg/injection, schedule: Q01DX001 (ip), vehicle: other 93 % of control

Cc1ccc(S/C=C/Sc2ccc(C)cc2)cc1
inactive: dose: 100.0 mg/kg/injection, schedule: Q04DX002 (ip), vehicle: Klucel (hydroxypropylcellulose) (HPC) 99 % of control | dose: 200.0 mg/kg/injection, schedule: Q04DX002 (ip), vehicle: Klucel (hydroxypropylcellulose) (HPC) 99 % of control | dose: 400.0 mg/kg/injection, schedule: Q04DX002 (ip), vehicle: Klucel (hydroxypropylcellulose) (HPC) 99 % of control

COc1ccc(OC)c(/C=C(/C)[N+](=O)[O-])c1
inactive: dose: 50.0 mg/kg/injection, schedule: Q01DX009 (ip), vehicle: saline with Tween-80 109 % of control | [4] 109 % of control | [5] 97 % of control | dose: 200.0 mg/kg/injection, schedule: Q01DX009 (ip), vehicle: saline with Tween-80 109 % of control | [6] 108 % of control

O=C(/C=C/CBr)NC(Cc1ccccc1)C(=O)O (stereo unspecified)
inactive: dose: 75.0 mg/kg/injection, schedule: Q01DX001 (ip), vehicle: other 104 % of control

[Br][Ge]([c]1ccccc1)([c]1ccccc1)[c]1ccccc1
inactive: dose: 25.0 mg/kg/injection, schedule: Q04DX002 (ip), vehicle: saline with Tween-80 104 % of control | dose: 50.0 mg/kg/injection, schedule: Q04DX002 (ip), vehicle: saline with Tween-80 96 % of control | [7] 104 % of control | [8] 94 % of control | [9] 93 % of control | [10] 94 % of control | [11] 90 % of control

CC(C)CC(NC(=O)CCl)C(=O)NCC(=O)O (stereo unspecified) (ClAc-[ξL]-Gly-OH)
inactive: [4] 94 % of control | [8] 101 % of control | [10] 95 % of control | [11] 103 % of control

CCOC(=O)c1c(/N=C/c2cc(Br)cc(Br)c2O)sc2c1CCCC2
inactive: [7] 91 % of control | [9] 102 % of control | [12] 105 % of control

O=C(NC(=S)c1cccc2ccccc12)Nc1ccc(Cl)cc1
inactive: [7] 97 % of control | [9] 89 % of control | [12] 89 % of control

CCOC(=O)CNC(=O)Oc1ccc2c(C)cc(=O)oc2c1
inactive: dose: 25.0 mg/kg/injection, schedule: Q01DX009 (ip), vehicle: carboxymethylcellulose (CMC) 100 % of control and 106 % of control | dose: 50.0 mg/kg/injection, schedule: Q01DX009 (ip), vehicle: carboxymethylcellulose (CMC) 98 % of control and 100 % of control | dose: 100.0 mg/kg/injection, schedule: Q01DX009 (ip), vehicle: carboxymethylcellulose (CMC) 93 % of control and 97 % of control | dose: 100.0 mg/kg/injection, schedule: Q04DX002 (ip), vehicle: carboxymethylcellulose (CMC) 98 % of control and 102 % of control | dose: 100.0 mg/kg/injection, schedule: Q04DX003 (ip), vehicle: carboxymethylcellulose (CMC) 92 % of control and 90 % of control | dose: 200.0 mg/kg/injection, schedule: Q01DX009 (ip), vehicle: carboxymethylcellulose (CMC) 100 % of control | dose: 200.0 mg/kg/injection, schedule: Q04DX002 (ip), vehicle: carboxymethylcellulose (CMC) 93 % of control and 97 % of control | dose: 200.0 mg/kg/injection, schedule: Q04DX003 (ip), vehicle: carboxymethylcellulose (CMC) 92 % of control and 87 % of control | dose: 400.0 mg/kg/injection, schedule: Q04DX002 (ip), vehicle: carboxymethylcellulose (CMC) 104 % of control and 105 % of control | dose: 400.0 mg/kg/injection, schedule: Q04DX003 (ip), vehicle: carboxymethylcellulose (CMC) 94 % of control and 101 % of control

O=C(Cc1ccccn1)NCC(O)c1ccccc1 (stereo unspecified)
inactive: [1] 110 % of control | [2] 91 % of control | [3] 93 % of control

COC(=O)/C(C)=N\N=C(N)N
inactive: dose: 15.0 mg/kg/injection, schedule: Q01DX Z (ip), vehicle: carboxymethylcellulose (CMC) 104 % of control | dose: 30.0 mg/kg/injection, schedule: Q01DX Z (ip), vehicle: carboxymethylcellulose (CMC) 92 % of control | dose: 60.0 mg/kg/injection, schedule: Q01DX Z (ip), vehicle: carboxymethylcellulose (CMC) 103 % of control | dose: 120.0 mg/kg/injection, schedule: Q01DX Z (ip), vehicle: carboxymethylcellulose (CMC) 97 % of control | dose: 240.0 mg/kg/injection, schedule: Q01DX Z (oral), vehicle: carboxymethylcellulose (CMC) 100 % of control | dose: 480.0 mg/kg/injection, schedule: Q01DX Z (oral), vehicle: carboxymethylcellulose (CMC) 96 % of control | dose: 960.0 mg/kg/injection, schedule: Q01DX Z (oral), vehicle: carboxymethylcellulose (CMC) 100 % of control | dose: 1920.0 mg/kg/injection, schedule: Q01DX Z (oral), vehicle: carboxymethylcellulose (CMC) 98 % of control

S=C([S][Sn]([c]1ccccc1)([c]1ccccc1)[c]1ccccc1)N1CCCCC1
inactive: [5] 100 % of control | [6] 94 % of control | dose: 400.0 mg/kg/injection, schedule: Q04DX003 (ip), vehicle: Klucel (hydroxypropylcellulose) (HPC) 94 % of control
